Laboratory results reported in patent publication US12398110B2, “Second generation inhibitors of mitochondrial permeability transition pore with improved plasma stability” (Oregon Health & Science University, priority 2019, dated 2025).

Tests used:
mtPTP = assay: Ca2+ overload induced mitochondrial swelling in isolated mouse liver mitochondria; format: biochemical; details: isolated mouse liver mitochondria; average ± SEM, n = 3-41; read-out: Mitochondrial Swelling EC50
Procedure, shortened: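 Liver mitochondria from 2–6-month male C57BL6/N mice (0.25 mg/mL protein) in sucrose buffer, pH 7.4, with glutamate/malate, challenged with CaCl2 at the preparation's swelling threshold (typically 50 μm) in presence of serially diluted compound. Swelling followed 30 min as absorbance decrease at 540 nm; EC50±SE by Hill fit, n=3-41 preparations.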

[1] = tested on: col6a1 zebrafish morphants; assay: Touch-evoked escape response in col6a1 zebrafish morphants; format: in vivo; details: 48 hpf, 27 hours of treatment, 0.1, 1 and 10 μm
Procedure: Zebrafish embryos were injected with col6a1 morpholino at the 1-cell stage, dechorionated at 20 hpf and treated at 21 hpf with 0.1, 1 or 10 μm of either TR001 or 63. DMSO-treated embryos injected with a scrambled morpholino were used as a control. […] It should be noted that in these protocols, embryos were exposed to drugs for a longer period of time than in the spontaneous coiling experiments. This difference may help to explain why TR001 was as effective at 0.1 μm as it was at 1 and 10 μm.
(§1) Morpholino antisense injection and treatment. Knock-down of col6a1 gene expression was obtained with a previously published morpholino ^[25] with sequence GAGAGCGGAAGACGAACCTTCATTC (SEQ ID NO: 2; GeneTools, Inc.). A control morpholino with no sequence homology in the zebrafish genome was used in parallel (CCTCTTACCTCAGTTACAATTTATA; SEQ ID NO: 3). Zebrafish eggs from wild-type matings were injected at the 1-2 cell stage with approximately 10 nL of 0.1 mm morpholino solution (corresponding to 4 ng of morpholino) using a WPI pneumatic PicoPump PV820 injector (World Precision Instruments, Inc.). Zebrafish embryos were dechorionated at 20 hours post fertilization (hpf) and treated at 21 hpf with increasing doses (0.1, 1 and 10 μm) of both TR001 and 63 compounds dissolved in fish water with 1% DMSO (vehicle).
Motor activity. The number of spontaneous coiling events performed in 15 seconds by single zebrafish embryos was recorded at 24 hpf by light microscopy. Touch-evoked escape responses were recorded at 48 hpf by observing the ability of zebrafish embryos to escape after a tail-touch with a little tip. Embryos were subdivided in 4 groups according to the observed phenotype: paralyzed embryos, score 0; underdeveloped embryos showing only coiling events, score 1; embryos showing lower motility, score 2; normal embryos, score 3.

[2] = tested on: col6a1 zebrafish morphants; assay: Survival of col6a1 zebrafish morphants; format: in vivo
Description: In FIG. 6D, the left panel represents data from embryos injected with a scrambled morpholino (scrd_MO, open squares), Exon 9 col6a1 morpholino (col6a1_MO, closed squares) and col6a1_MO embryos treated with TR001 at 0.1 μm (open circles), 1.0 μm (open triangles), 10 μm (open diamonds). Right panel represents data from embryos injected with a scrambled morpholino (scrd_MO, open squares), Exon 9 col6a1 morpholino (col6a1_MO, closed squares) and col6a1_MO embryos treated with 63 at […] (closed circles), 1.0 μm (closed triangles), 10 μm (closed diamonds). Embryos were treated with oligomycin, FCCP, rotenone (R) and antimycin A (A) as indicated. Results are presented as mean±SEM. Both graphs report data from 5 independent experiments with n=20 for each treatment. Error bars are reported as SEM. FIG. 6E, Survival of DMSO-treated zebrafish injected with the scrambled morpholino (open squares), DMSO-treated col6a1 morphants (closed squares) and col6a1 morphants treated with TR001 (0.1 μm, open triangles; 1.0 μm, open circles; 10 μm, open diamonds) or 63 (0.1 μm, closed triangles; 1.0 μm, closed circles; 10 μm, closed diamonds) were recorded for 30 days. Treatment started at 21 hpf and repeated at 4 dpf (arrows). Data report the percentage of surviving fish and are mean±SEM from 3 independent experiments (n=15 for each condition in each set).
Finally, fish survival was also assessed. Fifty percent of col6a1 morphant embryos treated with 0.1 μm of TR001 survived 7 days longer than col6a1 morphants treated with DMSO (p<0.0001 from 3 to 12 dpf), and 20% were still alive at 30 dpf (i.e., after 29 days of treatment) (FIG. 6E).
as §1
Survival. Zebrafish survival was monitored every 3 days for 30 days. Drug treatment with both TR001 and 63 dissolved in fish water with 1% DMSO started at 21 hpf. After 3 days of treatment (4 days post fertilization, dpf), zebrafish were moved to a bigger tank (50 mL) with fresh compounds dissolved in 1% DMSO. As a control vehicle, fish water with 1% DMSO was used.

## Cc1ccc(Cl)cc1NC(=O)c1cn(-c2ccc(F)c(O)c2)nn1 [TR001, N-(5-chloro-2-methylphenyl)-1-(4-fluoro-3-hydroxyphenyl)-1H-1,2,3-triazole-4-carboxamide]
mtPTP
  EC50: 29 ± 8 nM
[1]
  touch-evoked escape response (motility): improved
[2]; 0.1 μm
  days longer survival of fifty percent of embryos than DMSO treated morphants: 7 days
[2]; 0.1 μm, after 29 days of treatment
  percent still alive at 30 dpf: 20%
[2]; 1 μm
  survival (in words): effective at improving survival rate
[2]; 10 μm
  survival (in words): ineffective
